Reference: PubChem BioAssay (NCI)
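A five-concentration, 48-hour dose response in 96-well plates underlies each endpoint, interpolated linearly between surrounding concentrations. GI50: concentration for 50% inhibition of growth. TGI is the concentration that stops growth completely.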

How the values were obtained:
Test in all cases: NCI anticancer screen, dose series, 48 h; in the data active = GI50 below about 0.43 µM; inactive = the rest
786-0 renal = system: 786-0 renal
A498 renal = system: A498 renal
A549 NSCLC = system: A549 NSCLC
ACHN renal = system: ACHN renal
CAKI-1 renal = system: CAKI-1 renal
CCRF-CEM leukemia = system: CCRF-CEM leukemia
COLO 205 colon = system: COLO 205 colon
DLD-1 colon = system: DLD-1 colon
DMS 114 small cell lung = system: DMS 114 small cell lung
DMS 273 small cell lung = system: DMS 273 small cell lung
EKVX NSCLC = system: EKVX NSCLC
HCC-2998 colon = system: HCC-2998 colon
HCT-116 colon = system: HCT-116 colon
HCT-15 colon = system: HCT-15 colon
HL-60(TB) leukemia = system: HL-60(TB) leukemia
HOP-18 NSCLC = system: HOP-18 NSCLC
HOP-62 NSCLC = system: HOP-62 NSCLC
HOP-92 NSCLC = system: HOP-92 NSCLC
HT29 colon = system: HT29 colon
IGROV1 ovarian = system: IGROV1 ovarian
K-562 leukemia = system: K-562 leukemia
KM12 colon = system: KM12 colon
KM20L2 colon = system: KM20L2 colon
LOX IMVI melanoma = system: LOX IMVI melanoma
LXFL 529 NSCLC = system: LXFL 529 NSCLC
M14 melanoma = system: M14 melanoma
M19-MEL melanoma = system: M19-MEL melanoma
MALME-3M melanoma = system: MALME-3M melanoma
MOLT-4 leukemia = system: MOLT-4 leukemia
NCI-H226 lung = system: NCI-H226 lung
NCI-H23 lung = system: NCI-H23 lung
NCI-H460 lung = system: NCI-H460 lung
OVCAR-3 ovarian = system: OVCAR-3 ovarian
OVCAR-4 ovarian = system: OVCAR-4 ovarian
OVCAR-5 ovarian = system: OVCAR-5 ovarian
OVCAR-8 ovarian = system: OVCAR-8 ovarian
RPMI-8226 leukemia = system: RPMI-8226 leukemia
RXF 393 renal = system: RXF 393 renal
SF-268 CNS = system: SF-268 CNS
SF-295 CNS = system: SF-295 CNS
SF-539 CNS = system: SF-539 CNS
SK-MEL-2 melanoma = system: SK-MEL-2 melanoma
SK-MEL-28 melanoma = system: SK-MEL-28 melanoma
SK-MEL-5 melanoma = system: SK-MEL-5 melanoma
SK-OV-3 ovarian = system: SK-OV-3 ovarian
SN12C renal = system: SN12C renal
SNB-75 CNS = system: SNB-75 CNS
SNB-78 CNS = system: SNB-78 CNS
SR leukemia = system: SR leukemia
SW-620 colon = system: SW-620 colon
TK-10 renal = system: TK-10 renal
U251 CNS = system: U251 CNS
UACC-257 melanoma = system: UACC-257 melanoma
UACC-62 melanoma = system: UACC-62 melanoma
UO-31 renal = system: UO-31 renal
XF 498 CNS = system: XF 498 CNS
NCI-H522 lung = system: NCI-H522 lung
SNB-19 CNS = system: SNB-19 CNS

CC1(C(=O)Nc2ccc3cc4ccccc4cc3c2)CC2(C)CC(C)(C1)C(O)NC2=O (stereo not drawn)
> 100 µM: TGI (786-0 renal) | TGI (A498 renal) | TGI (A549 NSCLC) | TGI (ACHN renal) | TGI (CAKI-1 renal) | TGI (CCRF-CEM leukemia) | TGI (COLO 205 colon) | TGI (DLD-1 colon) | TGI (DMS 114 small cell lung) | TGI (DMS 273 small cell lung) | TGI (EKVX NSCLC) | TGI (HCC-2998 colon) | TGI (HCT-116 colon) | TGI (HCT-15 colon) | TGI (HOP-18 NSCLC) | TGI (HOP-62 NSCLC) | TGI (HOP-92 NSCLC) | TGI (HT29 colon) | TGI (IGROV1 ovarian) | TGI (K-562 leukemia) | TGI (KM12 colon) | TGI (KM20L2 colon) | TGI (LOX IMVI melanoma) | TGI (LXFL 529 NSCLC) | TGI (M14 melanoma) | TGI (M19-MEL melanoma) | TGI (MALME-3M melanoma) | TGI (MOLT-4 leukemia) | TGI (NCI-H226 lung) | TGI (NCI-H23 lung) | TGI (NCI-H460 lung) | TGI (OVCAR-3 ovarian) | TGI (OVCAR-4 ovarian) | TGI (OVCAR-5 ovarian) | TGI (OVCAR-8 ovarian) | TGI (RPMI-8226 leukemia) | TGI (RXF 393 renal) | TGI (SF-268 CNS) | TGI (SF-295 CNS) | TGI (SF-539 CNS) | TGI (SK-MEL-2 melanoma) | TGI (SK-MEL-28 melanoma) | TGI (SK-MEL-5 melanoma) | TGI (SK-OV-3 ovarian) | TGI (SN12C renal) | TGI (SNB-75 CNS) | TGI (SNB-78 CNS) | TGI (SR leukemia) | TGI (SW-620 colon) | TGI (TK-10 renal) | TGI (U251 CNS) | TGI (UACC-257 melanoma) | TGI (UACC-62 melanoma) | TGI (UO-31 renal) | TGI (XF 498 CNS)
85.8 µM: TGI (HL-60(TB) leukemia)

COc1cc(C)cc2c1[nH]c1ccccc12
22.1 µM: TGI (M14 melanoma)
18.6 µM: TGI (HOP-62 NSCLC)
19.6 µM: TGI (KM20L2 colon)
> 25 µM: TGI (786-0 renal) | TGI (A549 NSCLC) | TGI (ACHN renal) | TGI (CCRF-CEM leukemia) | TGI (COLO 205 colon) | TGI (DLD-1 colon) | TGI (DMS 114 small cell lung) | TGI (DMS 273 small cell lung) | TGI (HCC-2998 colon) | TGI (HCT-116 colon) | TGI (HCT-15 colon) | TGI (HL-60(TB) leukemia) | TGI (HOP-92 NSCLC) | TGI (HT29 colon) | TGI (IGROV1 ovarian) | TGI (K-562 leukemia) | TGI (KM12 colon) | TGI (LOX IMVI melanoma) | TGI (LXFL 529 NSCLC) | TGI (M19-MEL melanoma) | TGI (MALME-3M melanoma) | TGI (NCI-H226 lung) | TGI (NCI-H460 lung) | TGI (OVCAR-3 ovarian) | TGI (OVCAR-4 ovarian) | TGI (OVCAR-5 ovarian) | TGI (RPMI-8226 leukemia) | TGI (SF-268 CNS) | TGI (SK-MEL-2 melanoma) | TGI (SK-MEL-28 melanoma) | TGI (SK-MEL-5 melanoma) | TGI (SK-OV-3 ovarian) | TGI (SN12C renal) | TGI (SNB-19 CNS) | TGI (SNB-78 CNS) | TGI (SR leukemia) | TGI (SW-620 colon) | TGI (TK-10 renal) | TGI (U251 CNS) | TGI (UACC-62 melanoma) | TGI (UO-31 renal) | TGI (XF 498 CNS)
inactive: GI50 (786-0 renal) 9.37 µM | GI50 (ACHN renal) 23.4 µM | GI50 (CCRF-CEM leukemia) 15.4 µM | GI50 (COLO 205 colon) 12.4 µM | GI50 (DLD-1 colon) 10.5 µM | GI50 (DMS 273 small cell lung) 7.73 µM | GI50 (HCC-2998 colon) 14.9 µM | GI50 (HCT-116 colon) 11.4 µM | GI50 (HCT-15 colon) 7.45 µM | GI50 (HL-60(TB) leukemia) 6.88 µM | GI50 (HOP-92 NSCLC) 23.5 µM | GI50 (HT29 colon) 7.78 µM | GI50 (IGROV1 ovarian) 14.8 µM | GI50 (KM12 colon) 8.12 µM | GI50 (KM20L2 colon) 7.53 µM | GI50 (LOX IMVI melanoma) 12.7 µM | GI50 (LXFL 529 NSCLC) 18.3 µM | GI50 (M14 melanoma) 7.24 µM | GI50 (M19-MEL melanoma) 18.3 µM | GI50 (MALME-3M melanoma) 8.11 µM | GI50 (NCI-H226 lung) 8.44 µM | GI50 (NCI-H460 lung) 7.83 µM | GI50 (NCI-H522 lung) 4.24 µM | GI50 (SF-268 CNS) 14.3 µM | GI50 (SF-539 CNS) 6.01 µM | GI50 (SK-MEL-2 melanoma) 7.33 µM | GI50 (SK-MEL-28 melanoma) 16.3 µM | GI50 (SK-MEL-5 melanoma) 9.19 µM | GI50 (SK-OV-3 ovarian) 20.9 µM | GI50 (SN12C renal) 14.1 µM | GI50 (SR leukemia) 10.3 µM | GI50 (SW-620 colon) 8.35 µM | GI50 (U251 CNS) 10.4 µM | GI50 (UACC-62 melanoma) 15 µM | GI50 (UO-31 renal) 15 µM | GI50 (XF 498 CNS) 22.6 µM
14.5 µM: TGI (SF-539 CNS)
22.5 µM: TGI (RXF 393 renal)
active: GI50 (HOP-18 NSCLC) 0.29 µM
13.3 µM: TGI (NCI-H522 lung)
23.9 µM: TGI (OVCAR-8 ovarian)
12.7 µM: TGI (HOP-18 NSCLC)
